From US20030054185A1, “Biocidal controlled-release formulations” (CREAVIS GESELLSCHAFT F. TECHN.U.INNOVATION MBH, priority 2001, published 2003)

How the values were obtained:
Pseudomonas aeruginosa = assay: test microbial suspension shaken with aqueous extract, number of microbes determined; assay type: cell-based; conditions: contact time of 4 hours, starting number 10^7, 2 mL of 24 h water extract (37° C.) in 20 mL suspension (solvent control: 0.5 mL neat)
Description: The supernatant liquor is then filtered through a 0.2 micrometer pore filter. 2 mL of this solution are shaken with 20 mL of a test microbial suspension of Pseudomonas aeruginosa. […] The solvent is removed at 35° C. over a period of 48 hours in a drying cabinet, so that a polymer film remains on the base of the glass beaker. This film is extracted for 24 hours with 200 mL of water heated to 37° C. 2 mL of this solution are shaken with 20 mL of a test microbial suspension of Pseudomonas aeruginosa. […] Over a period of 14 days, the film is extracted as described above, each time for 24 hours, with 200 mL of water heated to 37° C., and the water is then subjected to microbiological testing. All of the determinations show a fall of from 4 to 5 logarithmic levels in the number of microbes. […] The solvent is removed over a period of 48 hours at 35° C. in a drying cabinet, so that a polymer film remains on the base of the glass beaker. The film is then dried for 24 hours at 5 mbar at 50° C. in a vacuum drying cabinet. This film is extracted for 24 hours with 200 mL of water heated to 37° C. 2 mL of this solution are shaken with 20 mL of a test microbial suspension of Pseudomonas aeruginosa. […] The solvent is removed over a period of 48 hours at 35° C. in a drying cabinet so that a polymer film remains on the base of the glass beaker. […]

Staphylococcus aureus = assay: as above; assay type: cell-based; conditions: contact time of 4 hours, starting number 10^7, 2 mL of 24 h water extract (37° C.) in 20 mL suspension (solvent control: 0.5 mL neat)
Description: 2 mL of this solution are shaken with 20 mL of a test microbial suspension of Staphylococcus aureus. After a contact time of 4 hours, 1 mL of the test microbial suspension is removed, and the number of microbes in the test mixture is determined.
This film is extracted for 24 hours with 200 mL of water heated to 37° C. 2 mL of this solution are shaken with 20 mL of a test microbial suspension of Staphylococcus aureus. After a contact time of 4 hours, 1 mL of the test microbial suspension is removed, and the number of microbes in the test mixture is determined. […] Over a period of 14 days, the film is extracted as described above, each time for 24 hours, with 200 mL of water heated to 37° C., and the water is then subjected to microbiological testing.
This film is extracted for 24 hours with 200 mL of water heated to 37° C. 2 mL of this solution are shaken with 20 mL of a test microbial suspension of Staphylococcus aureus. After a contact time of 4 hours, 1 mL of the test microbial suspension is removed, and the number of microbes in the test mixture is determined.

C1CCCCC1 [cyclohexane]
number of microbes in the test mixture (Pseudomonas aeruginosa): 10^7 microbes per mL

CCO [ethanol]
number of microbes in the test mixture (Staphylococcus aureus): 10^7 microbes per mL
